pEC50, pIC50, pKd: −log10 of the molar value. Where two headings read alike, the source gives them in different places.
How the values were obtained:
[1] = system: c-Myc expression in HDMB03 cells; assay: c-Myc expression inhibition, high content microscopy (HCM); type: cell-based, human; settings: Homo sapiens; for EC50: HD-MB03, Table 7, read-out: EC50 (μM) Myc-inhibition
Description: 3000 human G3 medulloblastoma or 2000 mouse SHH medulloblastoma cells per well were plated into 384-well plates (6007710, Perkin Elmer) in 30 μL of supplemented neurobasal medium using a Wellmate automated dispenser (Thermo Matrix). After 24 hours, 125 nl of compound was transferred via pin tool, resulting in a final drug concentration from 2 nM to 40 μM. 72 hours after adding the drug, the plates were fixed with 4% formaldehyde for 20 min. After fixation the cells were then washed 3 times with 75 μl of PBS. The cells were then permeabilized with 0.1% Triton-X 100 for 15 minutes at 25° C. and blocked using 1% BSA in PBS for 1 hour at 25° C. The primary antibody against c-Myc Ab (#9402, Cell Signaling) at a 1:400 dilution was diluted in 1% BSA in PBS. This mixture was added to each well before incubation overnight at 4° C. Each well was then washed 3 times with PBS using a Biotek ELX405 Select plate washer, and incubated for 1 hour at 25° C. with a solution containing 1/400 goat α-rabbit-Alexa-488 (4412S, Cell Signaling) and 1 μM Hoechst 33342 to detect nuclear material (H3570, Molecular Probes). Two images were captured of each well at 10× using a GE Healthcare InCell 6000 at 405 nM to detect nuclear staining and 488 nM to detect c-Myc. All data were analyzed using the multi-target analysis algorithm of the GE InCell Analyzer Workstation software. The number of nuclear objects in each well, as well as all nuclear measurements, was determined through nuclear masks over the Hoechst staining. C-Myc staining was then measured using top-hat segmentation in the entire cell.

[2] = target: BRDT (Homo sapiens, UniProt Q58F21); assay: competitive TR-FRET assay, BET-BD with acetylated peptide ligand; type: binding; settings: for pEC50: Table 6, head names no target, BRDT by comparison with Table 4, read-out: EC50; for pIC50: Table 2, inhibitor potency by TR-FRET
Description: (§1) Inhibitor potency was determined using a competitive TR-FRET assay as detailed herein, measuring interaction of the respective BET-BD with an acetylated peptide ligand (Table 2).

[3] = target: BRD3-BD1 (Homo sapiens (Human), UniProt Q15059); assay: as above; type: binding; settings: for EC50: Table 6, read-out: EC50 (μM) BRD3(1); for pIC50: Table 2, inhibitor potency by TR-FRET
Description: as §1

[4] = target: T1, BRD2-BD2 (Homo sapiens (Human), UniProt P25440); assay: as above; type: binding; settings: for [2(1)/2(2)]: Table 6, ratio of EC50; for EC50: Table 6, read-out: EC50 (μM) BRD2(2); for pIC50: Table 2, inhibitor potency by TR-FRET; for BD1/BD2: Table 2, ratio BRD2-BD1/BRD2-BD2
Description: as §1
Target sequence in this assay (P25440 344-453): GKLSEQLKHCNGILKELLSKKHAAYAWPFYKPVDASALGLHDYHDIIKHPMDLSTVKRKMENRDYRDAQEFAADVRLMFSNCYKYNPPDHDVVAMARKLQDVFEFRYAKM

[5] = target: T2, BRD2-BD1 (Homo sapiens (Human), UniProt P25440); assay: as above; type: binding; settings: for EC50: Table 6, read-out: EC50 (μM) BRD2(1); for pIC50: Table 2, inhibitor potency by TR-FRET
Description: as §1
Target sequence in this assay (P25440 74-180): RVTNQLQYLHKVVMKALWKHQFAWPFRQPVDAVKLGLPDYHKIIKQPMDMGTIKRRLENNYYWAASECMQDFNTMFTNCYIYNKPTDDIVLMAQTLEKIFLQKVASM

[6] = system: MV-4-11; assay: anti-proliferative activity; type: cell-based; settings: Homo sapiens, MV4-11; Table 7
Description: (§2) After 7 days of treatment, an equal volume of CellTiter-Glo reagent (G7572, Promega) was added and the luminescence signal was measured using an automated Envision plate reader (Perkin-Elmer). Luminescence data were normalized by log10 transformation prior to calculating the percent inhibition using the following equation:
(§3) 100*(negative control mean −compound value)/(negative control mean −positive control mean).

[7] = system: HDMB03 cells; assay: cell viability, CellTiter-Glo; type: cell-based, human; settings: Homo sapiens; for EC50: HD-MB03, Table 7, read-out: EC50 (μM) HDMB03
Description: Human G3 medulloblastoma or mouse SHH medulloblastoma cells were grown as neurospheres in supplemented neurobasal medium, as previously described (Kawauchi et al., 2012.)
as §2, §3
High-throughput assay data were analyzed using Robust Interpretation of Screening Experiments (RISE) application written in Pipeline Pilot (Accelrys, v. 8.5) and the R program (R Development Core Team).
Dose-response curves were calculated by regressing the median percent inhibition obtained over triplicate experiments to log 10-transformed concentrations. Non-linear regression was then performed using the R drc package with the four parameter log-logistic function (LL2.4) (Ritz and Streibig, 2009). Curves were fit under three different constraints: (1) all parameters free, (2) high response fixed to 100, (3) low response fixed to 0; and the best fit from these three nested models was selected using the anova.drc function.

[8] = target: BRD4(2) (Homo sapiens (Human), UniProt O60885); assay: BROMOscan KD determination; type: binding
Description: (§4) DiscoverX® can screen compounds against all ˜42 bromodomains (a service called BROMOscan) and perform follow-up KD determination. This service is considered the industrial standard for bromodomain inhibitor comparisons.

[9] = target: BRD3(1) (Homo sapiens (Human), UniProt Q15059); assay: BROMOscan KD determination; type: binding; settings: Table 10
Description: as §4

[10] = target: BRD3(2) (Homo sapiens (Human), UniProt Q15059); assay: BROMOscan KD determination; type: binding
Description: as §4

[11] = target: BRD4(1) (Homo sapiens (Human), UniProt O60885); assay: BROMOscan KD determination; type: binding; settings: Table 10
Description: as §4

[12] = target: BRD2(1) (Homo sapiens (Human), UniProt P25440); assay: BROMOscan KD determination; type: binding; settings: Table 10
Description: (§5) DiscoverX® can screen compounds against all ˜42 bromodomains (a service called BROMOscan) and perform follow-up KD determination. This service is considered the industrial standard for bromodomain inhibitor comparisons. […] Dots are symbolic of inhibition of the compound at this concentration; the larger the size of the dot, the greater the activity of the compound. […] Though these compounds are selective for the BET family, the selectivity within the BET family is poor. The results of a competitive binding experiment between compounds 19 (left), 41 (center), and 56 (right) (at a single concentration, 1 μM) and a control for each of the bromodomains are shown in FIG. 5.

[13] = target: BRD2(2) (Homo sapiens (Human), UniProt P25440); assay: BROMOscan KD determination; type: binding
Description: as §5

[14] = target: BRDT(2) (Homo sapiens (Human), UniProt Q58F21); assay: BROMOscan KD determination; type: binding
Description: as §5

[15] = target: BRDT(1) (Homo sapiens (Human), UniProt Q58F21); assay: BROMOscan KD determination; type: binding; settings: Table 10
Description: as §5

[16] = target: T1, BRD2-BD2; assay: isothermal titration calorimetry analysis of binding; settings: ITC; for ΔG / ΔH / −TΔS: BRD2-BD2; for pKd: BRD2-BD2, average of 3 experiments, read-out: average Kd
Description: (§6) b. Isothermal Titration Calorimetry Analysis of Binding to Brd2-BD1 and Brd2-BD2
(§7) Binding of compounds to BRD2 was monitored using an ITC200 (Microcal, Piscataway, N.J.). Either Brd2.1 (74-194) or Brd2.2 (348-455) was dialyzed overnight into a solution containing 50 mM HEPES, pH 7.0 and 150 mM NaCl at 15° C. Enzyme concentrations were determined after dialysis by absorbance at 280 nm using a molar extinction coefficient (ε280) of 25,565 M^−1 cm^−1 (2.1) or 16,055 M^−1 cm^−1 (2.2). Enzyme was diluted in dialysis buffer and 39.6 μL was loaded into the syringe. Compounds were dissolved in the same dialysis buffer and loaded in the cell to a volume of 204 μL. Injections were carried out by serial injections of enzyme; first, 1 injection of 1 μL, followed by 19 incremental injections of 2 μL, at 120 second intervals. Data from the first injection was excluded, due to pre-equilibration mixing between the contents of cell and syringe at the syringe tip. Peak areas were integrated, normalized, and then fitted by non-linear regression using the independent sites model in Origin™ (version 2.3.6, Microcal, Piscataway, N.J.).
Target sequence in this assay (P25440 348-455): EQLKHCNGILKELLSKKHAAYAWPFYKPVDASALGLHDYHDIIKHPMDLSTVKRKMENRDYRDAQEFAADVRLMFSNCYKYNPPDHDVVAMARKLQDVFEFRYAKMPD

[17] = target: T2, BRD2-BD1; assay: as above; settings: ITC; for ΔG / ΔH / −TΔS: BRD2-BD1; for pKd: BRD2-BD1, average of 3 experiments, read-out: average Kd
Description: as §6, §7
Target sequence in this assay (P25440 74-194): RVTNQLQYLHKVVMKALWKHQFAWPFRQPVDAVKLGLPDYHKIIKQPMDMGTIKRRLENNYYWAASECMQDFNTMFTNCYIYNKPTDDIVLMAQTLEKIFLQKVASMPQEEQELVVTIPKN

[18] = system: BRD2-BD2; assay: as above; settings: ITC Kd BRD2-BD1 / BRD2-BD2
Description: as §6, §7

[19] = target: BRD4-BD2 (Homo sapiens (Human), UniProt O60885); assay: competitive TR-FRET assay, BET-BD with acetylated peptide ligand; type: binding; settings: Table 2, inhibitor potency by TR-FRET
Description: as §1

[20] = target: BRD4-BD1 (Homo sapiens (Human), UniProt O60885); assay: as above; type: binding; settings: Table 2, inhibitor potency by TR-FRET
Description: as §1

Sequence of BRD3-BD1 (Q15059 34-140): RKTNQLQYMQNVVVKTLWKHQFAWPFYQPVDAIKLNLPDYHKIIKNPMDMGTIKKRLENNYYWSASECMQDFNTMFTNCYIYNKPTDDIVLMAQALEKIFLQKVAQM
Sequence of BRD2(2) (P25440 344-453): as the sequence (P25440 344-453) above
Sequence of BRD3(2) (Q15059 306-415): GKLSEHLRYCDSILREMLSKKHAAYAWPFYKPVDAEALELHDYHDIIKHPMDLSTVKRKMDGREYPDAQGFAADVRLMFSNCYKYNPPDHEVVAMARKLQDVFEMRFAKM
Sequence of BRD3(1) (Q15059 34-140): as the sequence (Q15059 34-140) above
Sequence of BRD2(1) (P25440 74-180): as the sequence (P25440 74-180) above

SMILES	EC50 [1] [µM]	pEC50 [2]	EC50 [3] [µM]	[2(1)/2(2)] [4]	EC50 [4] [µM]	ΔG [16] [kcal/mol]	ΔH [16] [kcal/mol]	−TΔS [16] [kcal/mol]	pKd [16]	ΔG [17] [kcal/mol]	ΔH [17] [kcal/mol]	−TΔS [17] [kcal/mol]	pKd [17]	Selectivity (2-1/2-2) [18]	pIC50 [3]	pIC50 [19]	pIC50 [20]	pIC50 [4]	BD1/BD2 [4]	pIC50 [5]	further results
CCCCNc1cccc(-c2ccc3c(c2)[C@H](Nc2ccc(C(=O)OC)cc2)C[C@H](C)N3C(C)=O)c1 [compound 45]	0.38	5.14	2.1	16.25	0.16																EC50 [5]: 2.6 µM; EC50 [6]: 0.083 µM; EC50 [7]: 0.56 µM
CCCNc1cccc(-c2ccc3c(c2)[C@H](Nc2ccc(C(=O)OC)cc2)C[C@H](C)N3C(C)=O)c1 [compound 46]	0.34	5.59	1	7.6	0.17																EC50 [5]: 1.3 µM; EC50 [6]: 0.018 µM; EC50 [7]: 0.35 µM
COC(=O)c1ccc(N[C@@H]2C[C@H](C)N(C(C)=O)c3ccc(-c4cccc(NCCC(F)(F)F)c4)cc32)cc1 [compound 47]	0.25	5.24	1.9	7.2	0.32																EC50 [5]: 2.3 µM; EC50 [6]: 0.008 µM; 4(1)/4(2) ([8]; BROMOscan KD ratio): 11.4; pKd ([8]; BROMOscan, Table 10): 8.55; pKd [9]: 7.43; 3(1)/3(2) ([10]; BROMOscan KD ratio): 16.1; pKd ([10]; BROMOscan, Table 10): 8.64; pKd [11]: 7.49; pKd [12]: 7.39; [2(1)/2(2)] ([13]; BROMOscan KD ratio): 8.2; pKd ([13]; BROMOscan, Table 10): 8.30; T(1)/T(2) ([14]; BROMOscan KD ratio): 2.6; pKd ([14]; BROMOscan, Table 10): 8.09; pKd [15]: 7.68; EC50 [7]: 0.35 µM
CC(=O)N1c2ccc(-c3ccoc3)cc2[C@H](NC(=O)OC(C)C)C[C@@H]1C [compound 51]						-8.61	-6.31	-2.29	6.52	-8.96	-9.90	0.94	6.79	0.5	5.64	5.37	5.24	5.85	5	5.14	pEC50 ([1]; HD-MB03, HDMB03 cells, read-out: c-Myc expression EC50): 6.00; pIC50 [2]: 4.64; pEC50 ([7]; HD-MB03, HDMB03 cells, read-out: cell viability EC50): 5.48
CC(=O)N1c2ccc(-c3cccs3)cc2[C@H](NC(=O)OC(C)C)C[C@@H]1C [compound 52]						-10.12	-7.18	-2.94	7.68	-9.52	-8.27	-1.25	7.21	2.9	5.92	5.52	< 4.11	6.47	5	5.77	
CC(=O)N1c2ccc(-c3ccsc3)cc2[C@H](NC(=O)OC(C)C)C[C@@H]1C [compound 53]						-10.25	-6.92	-3.33	7.77	-9.43	-7.69	-1.74	7.14	4.2	5.51	5.34	4.85	6.01	7	5.14	
CC(=O)N1c2ccc(-c3ccc[nH]3)cc2[C@H](NC(=O)OC(C)C)C[C@@H]1C [compound 54]						-9.82	-6.89	-2.92	7.45	-9.08	-6.90	-2.18	6.88	3.7	5.25	5.07	5.77	< 4.31		5.81	
CC(=O)N1c2ccc(-c3cc[nH]c3)cc2[C@H](NC(=O)OC(C)C)C[C@@H]1C [compound 55]						-10.15	-7.01	-3.32	7.70	-9.28	-7.33	-1.95	7.04	4.6	6.59	5.92	5.89	6.43	5	5.77	pIC50 [2]: 4.31

— patent US11028051B2, “Tetrahydroquinoline-based bromodomain inhibitors” (St. Jude Children's Research Hospital, priority 2016, dated 2021)
